This note sets out measurements from patent publication US9000025B2, “Autotaxin inhibitors and uses thereof” (Amira Pharmaceuticals, Inc., priority 2010, dated 2015).

The structures appear in SMILES notation. Where only a bound is given, the exact number is not on record here.

As a reminder, the IC50 is the concentration at which inhibition is half-maximal.

The target in this test is T1, autotaxin (ATX) (Homo sapiens, UniProt Q13822).
T1 construct: conditioned medium from the human melanoma cell line, MDA-MB-4355, which endogenously expresses autotaxin; host or cells: MDA-MB-435S human melanoma cells; serum-free conditioned medium, concentrated 20-fold
As to the kind of experiment: Native Autotaxin Choline Release Assay. To be noted: autotaxin in conditioned medium from human melanoma cell line; choline released from LPC; read-out: MDA-MB-435S Assay IC50. Format: biochemical. In short, it runs like this: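 Native ATX from conditioned serum-free, phenol-red-free DMEM of confluent cells cultured 48 h; LPC as substrate. Released choline detected with choline oxidase/peroxidase/4-aminoantipyrine colour mix in 50 mM Tris pH 8, 10 min at 37 °C, absorbance 555 nm; choline quantified against standard curve, equated to LPA formed.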
For the compound `Cc1c(Sc2cccc(C(=O)O)c2)c2ccc(Cl)cc2n1-c1cnn(CC(F)(F)F)c1` [Compound 1-55, 3-{6-Chloro-2-methyl-1-[1-(2,2,2-trifluoro-ethyl)-1H-pyrazol-4-yl]-1H-indol-3-ylsulfanyl}-benzoic acid], the IC50 is under 300 nM.

For `Cc1c(Sc2cc(C(=O)O)cc(C(F)(F)F)c2)c2ccc(Cl)cc2n1-c1cnn(C)c1` [Compound 1-53, 3-[6-Chloro-2-methyl-1-(1-methyl-1H-pyrazol-4-yl)-1H-indol-3-ylsulfanyl]-5-trifluoromethyl-benzoic acid], the IC50 is over 1000 nM.

In the case of `Cc1[nH]c2cccc(F)c2c1Sc1cccc(CC(=O)O)c1` [Compound 3-5, [3-(4-Fluoro-2-methyl-1H-indol-3-ylsulfanyl)-phenyl]-acetic acid], the IC50 was over 1000 nM.

Regarding `Cc1c(Sc2cccc(C(=O)NCC[N+](C)(C)C)c2)c2ccc(Br)cc2n1Cc1ccccc1` [Compound 2-10, {2-[3-(1-Benzyl-6-bromo-2-methyl-1H-indol-3-ylsulfanyl)-benzoylamino]-ethyl}-trimethyl-ammonium], the 50% inhibitory concentration (IC50) is over 1000 nM.

`CCn1cc(-n2c(C)c(Sc3ccc(C)c(C(=O)O)c3)c3ccc(Cl)cc32)cn1` [Compound 1-132, 5-[6-Chloro-1-(1-ethyl-1H-pyrazol-4-yl)-2-methyl-1H-indol-3-ylsulfanyl]-2-methyl-benzoic acid]: the IC50 is under 300 nM.

`CCCn1cc(-n2c(C)c(Sc3cccc(CC(=O)O)c3F)c3ccc(Cl)c(F)c32)cn1` [Compound 4-12, {3-[6-Chloro-7-fluoro-2-methyl-1-(1-propyl-1H-pyrazol-4-yl)-1H-indol-3-ylsulfanyl]-2-fluoro-phenyl}-acetic acid]: the IC50 is under 300 nM.

For `CCCCn1cc(-n2c(C)c(Sc3cccc(C(=O)O)c3)c3ccc(Cl)cc32)cn1` [Compound 1-72, 3-[1-(1-Butyl-1H-pyrazol-4-yl)-6-chloro-2-methyl-1H-indol-3-ylsulfanyl]-benzoic acid], the 50% inhibitory concentration (IC50) is under 300 nM.

Take `Cc1c(Sc2ccc(CC(=O)O)cc2)c2ccc(Cl)cc2n1C` [Compound 3-11, [4-(6-Chloro-1,2-dimethyl-1H-indol-3-ylsulfanyl)-phenyl]-acetic acid]: the IC50 is over 1000 nM.

Regarding `Cc1c(Sc2cccc(CC(=O)O)c2)c2ccc(Cl)cc2n1-c1cnn(C)c1` [Compound 1-45, {3-[6-Chloro-2-methyl-1-(1-methyl-1H-pyrazol-4-yl)-1H-indol-3-ylsulfanyl]-phenyl}-acetic acid], the IC50 is under 300 nM.

As to `CCCn1cc(-n2c(C)c(Sc3cccc(C(=O)O)c3F)c3ccc(Cl)cc32)cn1` [Compound 1-131, 3-[6-Chloro-2-methyl-1-(1-propyl-1H-pyrazol-4-yl)-1H-indol-3-ylsulfanyl]-2-fluoro-benzoic acid], the IC50 is under 300 nM.

Take `CCn1cc(-n2c(C)c(Sc3cccc(C(=O)NS(=O)(=O)C4CC4)c3)c3ccc(Cl)c(F)c32)cn1` [Compound 3-51, cyclopropanesulfonic acid 3-[6-chloro-1-(1-ethyl-1H-pyrazol-4-yl)-7-fluoro-2-methyl-1H-indol-3-ylsulfanyl]-benzoylamide]: the IC50 was under 300 nM.

Turning to `Cc1c(Sc2cccc(C(=O)O)c2)c2ccc(Cl)c(F)c2n1-c1cnn(C(C)C)c1` [Compound 3-56, 3-[6-Chloro-7-fluoro-1-(1-isopropyl-1H-pyrazol-4-yl)-2-methyl-1H-indol-3-ylsulfanyl]-benzoic acid], the IC50 is under 300 nM.

With `Cc1[nH]c2cc(Cl)ccc2c1Sc1ccc(CC(=O)O)cc1` [Compound 3-2, [4-(6-Chloro-2-methyl-1H-indol-3-ylsulfanyl)-phenyl]-acetic acid], the IC50 was over 1000 nM.

In the case of `CCn1cc(-n2c(C)c(Sc3cccc(C(=O)O)c3)c3ccc(S(C)(=O)=O)cc32)cn1` [Compound 1-75, 3-[1-(1-Ethyl-1H-pyrazol-4-yl)-6-methanesulfonyl-2-methyl-1H-indol-3-ylsulfanyl]-benzoic acid], the IC50 is over 1000 nM.

With `Cc1c(Sc2cccc(CC(=O)O)c2)c2ccc(Cl)cc2n1-c1cccnc1` [Compound 1-35, [3-(6-Chloro-2-methyl-1-pyridin-3-yl-1H-indol-3-ylsulfanyl)-phenyl]-acetic acid], the IC50 was under 300 nM.

For `COc1ccc2c(Sc3cccc(CC(=O)O)c3)c(C)[nH]c2c1` [Compound 1-3, [3-(6-Methoxy-2-methyl-1H-indol-3-ylsulfanyl)-phenyl]-acetic acid], the IC50 was over 1000 nM.

`Cc1c(Sc2c(C)n(-c3cnn(C)c3)c3cc(Cl)ccc23)cccc1C(=O)O` [Compound 1-63, 3-[6-Chloro-2-methyl-1-(1-methyl-1H-pyrazol-4-yl)-1H-indol-3-ylsulfanyl]-2-methyl-benzoic acid]: the IC50 was under 300 nM.

Take `CCCn1cc(-n2c(C)c(Sc3cccc(CC(=O)O)c3)c3ccc(Cl)cc32)cn1` [Compound 1-70, {3-[6-Chloro-1-(1-propyl-1H-pyrazol-4-yl)-2-methyl-1H-indol-3-ylsulfanyl]-phenyl}-acetic acid]: the IC50 was under 300 nM.
